A short description of data set [1]: Selectivity ratio of Ki for bovine recombinant eNOS to Ki for rat recombinant nNOS.
Data set [2] is described as follows: Selectivity ratio of Ki for mouse recombinant iNOS to Ki for rat recombinant nNOS.
The target of the next data set is Nitric oxide synthase 1 (Rattus norvegicus, UniProt P29476).
In a further data set the test system is Caco-2. Conditions: human, caco-2, 2 h, 10 µM.
In data set [3] the target is T1, Nitric oxide synthase, inducible (Mus musculus, UniProt P29477).
T1 sequence (P29477 whole entry): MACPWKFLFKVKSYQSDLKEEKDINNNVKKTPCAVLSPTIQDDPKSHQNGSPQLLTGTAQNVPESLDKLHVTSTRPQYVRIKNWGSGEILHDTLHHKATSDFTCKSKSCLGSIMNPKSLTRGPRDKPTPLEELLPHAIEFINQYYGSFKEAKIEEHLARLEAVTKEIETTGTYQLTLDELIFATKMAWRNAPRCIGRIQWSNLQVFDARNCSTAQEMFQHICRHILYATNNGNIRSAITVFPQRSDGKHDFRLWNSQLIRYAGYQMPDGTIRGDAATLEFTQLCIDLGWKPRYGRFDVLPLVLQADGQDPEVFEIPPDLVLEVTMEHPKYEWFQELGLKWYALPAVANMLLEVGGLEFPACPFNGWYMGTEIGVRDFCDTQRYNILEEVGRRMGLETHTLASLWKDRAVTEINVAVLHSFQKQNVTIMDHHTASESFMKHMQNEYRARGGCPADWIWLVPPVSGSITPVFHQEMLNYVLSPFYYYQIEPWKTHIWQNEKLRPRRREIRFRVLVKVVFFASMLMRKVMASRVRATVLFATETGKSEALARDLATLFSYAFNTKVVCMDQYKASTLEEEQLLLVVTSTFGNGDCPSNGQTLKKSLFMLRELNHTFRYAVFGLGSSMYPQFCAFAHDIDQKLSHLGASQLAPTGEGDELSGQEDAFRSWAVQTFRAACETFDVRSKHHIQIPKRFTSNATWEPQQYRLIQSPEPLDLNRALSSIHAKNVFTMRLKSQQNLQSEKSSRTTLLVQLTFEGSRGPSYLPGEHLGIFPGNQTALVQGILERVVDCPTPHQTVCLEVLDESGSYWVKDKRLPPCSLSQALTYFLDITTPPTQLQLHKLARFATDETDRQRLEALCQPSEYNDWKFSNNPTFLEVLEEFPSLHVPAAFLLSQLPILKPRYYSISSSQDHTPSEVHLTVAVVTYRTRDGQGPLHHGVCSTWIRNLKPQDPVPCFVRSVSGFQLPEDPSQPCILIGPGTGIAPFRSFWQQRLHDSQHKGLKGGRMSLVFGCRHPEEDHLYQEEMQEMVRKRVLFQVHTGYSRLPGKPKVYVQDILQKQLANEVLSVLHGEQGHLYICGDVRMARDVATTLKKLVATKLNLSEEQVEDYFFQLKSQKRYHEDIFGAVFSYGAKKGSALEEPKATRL
Description: Inhibition of mouse recombinant iNOS expressed in Escherichia coli using L-arginine as substrate assessed as NO production by hemoglobin capture assay

The next data set addresses T2, Nitric oxide synthase 3 (Bos taurus, UniProt P29473).
T2 sequence (P29473 whole entry): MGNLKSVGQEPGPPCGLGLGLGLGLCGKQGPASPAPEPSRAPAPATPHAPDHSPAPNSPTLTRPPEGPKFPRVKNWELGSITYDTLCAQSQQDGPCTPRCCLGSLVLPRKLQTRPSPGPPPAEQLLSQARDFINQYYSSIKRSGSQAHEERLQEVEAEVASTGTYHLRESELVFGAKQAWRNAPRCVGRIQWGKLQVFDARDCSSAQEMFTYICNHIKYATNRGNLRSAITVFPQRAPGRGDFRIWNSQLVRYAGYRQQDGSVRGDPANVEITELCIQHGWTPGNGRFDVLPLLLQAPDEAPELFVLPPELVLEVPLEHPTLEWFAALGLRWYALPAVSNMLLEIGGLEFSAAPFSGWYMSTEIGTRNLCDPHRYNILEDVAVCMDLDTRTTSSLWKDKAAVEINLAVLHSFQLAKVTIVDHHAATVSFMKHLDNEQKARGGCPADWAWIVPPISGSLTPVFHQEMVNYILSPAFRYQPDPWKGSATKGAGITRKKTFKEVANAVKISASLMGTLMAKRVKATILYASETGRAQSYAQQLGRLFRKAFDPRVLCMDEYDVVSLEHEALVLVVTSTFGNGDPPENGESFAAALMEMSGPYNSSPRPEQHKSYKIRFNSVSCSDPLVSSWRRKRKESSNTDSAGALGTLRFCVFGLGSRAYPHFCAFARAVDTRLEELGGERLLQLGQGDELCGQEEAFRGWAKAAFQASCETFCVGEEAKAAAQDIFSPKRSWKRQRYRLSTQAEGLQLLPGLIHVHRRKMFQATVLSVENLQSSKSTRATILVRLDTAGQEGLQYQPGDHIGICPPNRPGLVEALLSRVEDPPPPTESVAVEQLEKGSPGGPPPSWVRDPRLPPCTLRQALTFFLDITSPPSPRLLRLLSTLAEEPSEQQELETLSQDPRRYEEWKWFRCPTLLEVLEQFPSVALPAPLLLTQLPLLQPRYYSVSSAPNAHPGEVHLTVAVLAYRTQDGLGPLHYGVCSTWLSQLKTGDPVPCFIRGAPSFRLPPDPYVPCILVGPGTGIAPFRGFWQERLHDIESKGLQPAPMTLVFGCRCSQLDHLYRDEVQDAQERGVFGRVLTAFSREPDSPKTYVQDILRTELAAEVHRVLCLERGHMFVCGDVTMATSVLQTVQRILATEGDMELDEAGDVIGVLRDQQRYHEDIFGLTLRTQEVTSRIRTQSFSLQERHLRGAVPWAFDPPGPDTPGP

Each structure is given as a SMILES string.

Chain of Nitric oxide synthase 1 (P29476 whole entry): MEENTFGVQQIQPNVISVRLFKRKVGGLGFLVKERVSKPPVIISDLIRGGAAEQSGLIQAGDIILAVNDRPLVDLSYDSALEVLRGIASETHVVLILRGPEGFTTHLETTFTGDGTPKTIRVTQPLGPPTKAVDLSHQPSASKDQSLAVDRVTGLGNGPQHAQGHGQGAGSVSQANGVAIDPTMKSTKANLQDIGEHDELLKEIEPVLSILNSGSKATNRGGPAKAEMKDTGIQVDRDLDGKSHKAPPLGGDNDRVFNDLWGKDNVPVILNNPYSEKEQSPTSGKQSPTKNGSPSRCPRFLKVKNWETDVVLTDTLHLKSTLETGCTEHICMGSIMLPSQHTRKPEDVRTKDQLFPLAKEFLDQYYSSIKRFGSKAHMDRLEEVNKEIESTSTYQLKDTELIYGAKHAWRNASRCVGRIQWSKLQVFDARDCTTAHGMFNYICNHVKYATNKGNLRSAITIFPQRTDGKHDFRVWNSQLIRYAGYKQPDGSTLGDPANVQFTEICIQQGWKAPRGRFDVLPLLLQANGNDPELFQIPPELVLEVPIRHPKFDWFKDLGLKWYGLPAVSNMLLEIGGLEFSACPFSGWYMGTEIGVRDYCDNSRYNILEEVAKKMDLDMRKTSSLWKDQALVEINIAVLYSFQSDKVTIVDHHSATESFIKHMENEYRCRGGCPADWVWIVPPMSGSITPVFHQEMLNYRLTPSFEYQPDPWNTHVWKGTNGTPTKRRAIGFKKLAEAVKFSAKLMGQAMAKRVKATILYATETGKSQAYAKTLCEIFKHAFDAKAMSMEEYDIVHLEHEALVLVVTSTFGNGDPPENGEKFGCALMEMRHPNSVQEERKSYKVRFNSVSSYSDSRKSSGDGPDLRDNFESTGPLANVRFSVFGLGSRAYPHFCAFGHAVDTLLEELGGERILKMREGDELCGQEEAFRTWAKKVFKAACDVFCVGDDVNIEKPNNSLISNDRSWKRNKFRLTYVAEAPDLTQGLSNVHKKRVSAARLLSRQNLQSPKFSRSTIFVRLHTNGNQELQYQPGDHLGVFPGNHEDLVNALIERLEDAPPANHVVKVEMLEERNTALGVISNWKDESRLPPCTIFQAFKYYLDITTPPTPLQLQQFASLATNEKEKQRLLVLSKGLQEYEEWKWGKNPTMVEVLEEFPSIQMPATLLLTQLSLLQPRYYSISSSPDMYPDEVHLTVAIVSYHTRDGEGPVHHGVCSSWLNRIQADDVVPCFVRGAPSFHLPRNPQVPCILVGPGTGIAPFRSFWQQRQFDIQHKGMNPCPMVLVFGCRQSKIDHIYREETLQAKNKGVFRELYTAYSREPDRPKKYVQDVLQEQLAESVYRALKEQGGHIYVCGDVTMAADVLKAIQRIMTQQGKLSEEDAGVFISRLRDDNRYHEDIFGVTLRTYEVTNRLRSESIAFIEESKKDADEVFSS
Description for Caco-2: Apparent permeability across basolateral to apical side in human Caco2 cells assessed as compound recovery at 10 uM for 2 hrs by LC-MS/MS analysis
Description for Nitric oxide synthase 1: Inhibition of rat recombinant nNOS expressed in Escherichia coli using L-arginine as substrate assessed as NO production by hemoglobin capture assay
Description for Nitric oxide synthase 3: Inhibition of bovine recombinant eNOS expressed in Escherichia coli using L-arginine as substrate assessed as NO production by hemoglobin capture assay

Take `Nc1ccc2ccc(CCNCc3cccc(F)c3)cc2n1`: the Ratio Ki turned out to be 30 in data set [1] and 97 in data set [2].

In the case of `Nc1ccc2ccc(CCNCCc3ccc(Cl)cc3)cc2n1`, the Ratio Ki in data set [1] is 47; in data set [2], 91.

`Nc1ccc2ccc(CNCCc3cccc(F)c3)cc2n1`: the Ratio Ki in data set [1] stood at 6.2; in data set [2], 124.

A word on the Ki: it is a dissociation constant, usually derived from enzyme kinetics or from competition with a known ligand. Lower therefore signals tighter binding. Compound `Nc1ccc2cc(CCNCCc3cccc(F)c3)ccc2n1` yielded a Ki at Nitric oxide synthase 1 of more than 5.7 µM.

In turn, `Nc1ccc2cc(CCNCc3cccc(F)c3)ccc2n1` came in with an inhibitory constant (Ki) on Nitric oxide synthase 1 of more than 5.7 µM.

On to `Nc1ccc2ccc(CCNCCc3ccc(F)cc3)cc2n1`, for which the values for the Ratio Ki in data set [1] and in data set [2] were 37 and 280, respectively.

With `Nc1ccc2cc(CNCCc3cccc(F)c3)ccc2n1`, the Ki at Nitric oxide synthase 1 was more than 5.7 µM.

A word on the IC50: it is the concentration that gives 50% inhibition. Low values mean higher potency, high ones lower potency. On to `Cl.Cl.Cl.N=C(Nc1ccc(CCNCc2cccc(Cl)c2)cc1)c1cccs1`, for which the Drug recovery in the data set with Caco-2 came to 78%. For the same compound, the IC50 against Nitric oxide synthase 1 stood at 0.035 µM.

As for `Nc1ccc2cc(CCNCCCc3cccc(F)c3)ccc2n1`, the Ki at Nitric oxide synthase 1 worked out at 4.37 µM. This counts as single-digit micromolar.

In the case of `Nc1ccc2ccc(CNCCCc3cccc(F)c3)cc2n1`, the Ratio Ki in data set [1] came to 62; in data set [2] it was 538. The Ki was 32.3 µM in data set [3], 3.69 µM on Nitric oxide synthase 3 and 0.06 µM on Nitric oxide synthase 1.

The record behind these values is ChEMBL document CHEMBL3124831, “Simplified 2-aminoquinoline-based scaffold for potent and selective neuronal nitric oxide synthase inhibition” (J Med Chem, 2014).
